Data from patent US9056096B2, “Hyaluronic acid decomposition-promoting factor and inhibitor thereof” (Kao Corporation, priority 2010, dated 2015).

B1: IL-1α: cytokine, RA-related inflammatory mediator (protein, UniProt P01583 113-271, looked up)
Interleukin-1 alpha: SAPFSFLSNVKYNFMRIIKYEFILNDALNQSIIRANDQYLTAAALHNLDEAVKFDMGAYKSSKDDAKITVILRISKTQLYVTAQDEDQPVLLKEMPEIPKTITGSETNLLFFWETHGTKNYFTSVAHPNLFIATKQDYWVCLAGGPPSITDFQILENQA

Experiments:
KIAA1199 mRNA [1] = experiment: Induction of KIAA1199 mRNA expression in cultured RA synovial cells; type: cell-based, human; conditions: inflammatory mediator added to cultured RA synovial cells
Procedure: Western blotting was performed through a standard method. In real-time PCR, total RNA was separated by use of RNeasy (Qiagen), and cDNA was synthesized by means of High Capacity cDNA Archive kit (Applied Biosystems, Foster City, Calif.).
Meanwhile, PGE2 (i.e., an inflammatory mediator) and several cytokines such as IL-1, IL-6, and TNF-α are present at high levels in synovial fluid of RA patients. Therefore, whether or not expression of KIAA1199 in RA synovial cells is induced by such an inflammatory mediator was investigated.

KIAA1199/HEK293 cells = experiment: Inhibitor experiment: [3H]HA decomposition in HEK293 cells stably expressing KIAA1199; type: cell-based, human; conditions: preliminary treatment with inhibitor 3 hours, then 6 hours with [3H]HA
Procedure: Cells were cultured in a medium containing [^3H]HA (40,000 dpm/mL) to confluent. […] The medium was eluted with 0.5% NaCl at 0.65 mL/min, and fractions (each 2.55 mL) were collected. The radioactivity of each fraction was measured.
Cells were cultured in a medium containing G418, and stable transformants were selected.
Cells were incubated for 3 hours with an inhibitor at a predetermined concentration and then incubated for 6 hours with [^3H]HA in the presence of the inhibitor.
In order to investigate the hyaluronic acid decomposition mechanism by the mediation of KIAA1199, HEK293 cells (KIAA1199/HEK293), in which KIAA1199 is consistently expressed, were established.

[2] = system: cultured normal human skin fibroblasts (Detroit551); experiment: [3H]HA decomposition assay using cultured normal human skin fibroblasts; type: cell-based; conditions: for decomposition of hyaluronic acid by cultured fibroblasts: exogenously added [3H]HA, substance added to the culture
Procedure: Normal human skin fibroblasts (Detroit 551, ATCC (American Type Culture Collection), HS-27, NHDF) were cultured in an Eagle's minimal essential medium (MEM) (MP Biomedicals, Solon, Ohio) supplemented with essential amino acids, 1 mM sodium pyruvate, and 10% (vol/vol) fetal bovine serum (FBS) (JRH Biosciences, Kansas). HEK293, COS-7 cells, and human synovial fibroblasts (TOYOBO) were maintained in a Dulbecco's modified Eagle's medium (Sigma) containing 10% fetal bovine serum, 100-units/mL penicillin, and 100-μg/mL streptomycin. Culturing was performed at 37° C. in a humidified atmosphere containing 5% CO2.
[^3H]-labeled hyaluronic acid ([^3H]HA) was prepared though a slightly modified method of Underhill, Toole, et al. (C. B. Underhill and B. P. Toole, Binding of hyaluronate to the surface of cultured cells. J. Cell Biol. 82 (1979) 475-84). Specifically, confluent Detroit 551 fibroblasts were incubated with D-[1,6-^3H(N)]glucosamine hydrochloride (10-μCi/mL). A conditioned medium was pooled, and the incubated cells were digested with pronase (0.3 mg/mL) and precipitated in ethanol. The formed pellets were suspended in water and re-precipitated with 1.5% cetylpyridinium chloride and 0.03M NaCl. The thus-formed pellets were dissolved in 0.1% cetylpyridinium chloride and 0.4M NaCl and re-precipitated again in ethanol. The thus-formed pellets were suspended in 5 mM phosphate buffer (pH: 7.5), and the suspension was applied to a Sepharose CL-2B column (10×600 mm) equilibrated with 0.5% NaCl. Vo fractions were collected, and the product was precipitated in ethanol. Finally, the product was dissolved in 5 mM phosphate buffer (pH: 7.5).
Cells were cultured in a medium containing [^3H]HA (40,000 dpm/mL) to confluent. After incubation, the medium was removed and applied to a Sepharose CL-2B column (10×600 mm). The medium was eluted with 0.5% NaCl at 0.65 mL/min, and fractions (each 2.55 mL) were collected. The radioactivity of each fraction was measured.
siRNAs (TT2 cohesive end, non-modified) each having 25 nucleotides with respect to KIAA1199, HYAL2, CD44, and a negative control were purchased from Invitrogen (Carlsbad, Calif.). Each siRNA was incorporated by use of Lipofectamine RNAiMAX (Invitrogen, Carlsbad, Calif.).

KIAA1199 mRNA [3] = conditions: stimulation with histamine
Procedure: Western blotting was performed through a standard method. In real-time PCR, total RNA was separated by use of RNeasy (Qiagen), and cDNA was synthesized by means of High Capacity cDNA Archive kit (Applied Biosystems, Foster City, Calif.). Real-time PCR was performed through TaqMan (registered trademark) technique and by means of an apparatus ABI Prism 7700 (Applied Biosystems, Foster City, Calif.).

[4] = after stimulation with histamine

Molecule | expression of KIAA1199 mRNA in RA synovial cells (KIAA1199 mRNA [1]) | decomposition of hyaluronic acid in KIAA1199/HEK293 cells (KIAA1199/HEK293 cells) | also measured
CCCCC[C@H](O)/C=C/[C@H]1[C@H](O)CC(=O)[C@@H]1C/C=C\CCCC(=O)O [PGE2, prostaglandin E2] | stimulate expression |  | 
CC[C@@]1([C@@H]2O[C@@H]([C@H]3O[C@@](O)(CO)[C@H](C)C[C@@H]3C)C[C@@H]2C)CC[C@H]([C@]2(C)CC[C@]3(C[C@H](O)[C@@H](C)[C@@H]([C@@H](C)[C@@H](OC)[C@H](C)C(=O)O)O3)O2)O1 [monensin] |  | inhibited | 
CCN1C(=O)C=CC1=O [N-ethylmaleimide] |  | inhibited | 
O=c1cc(-c2ccc(O)c(O)c2)oc2c([C@@H]3O[C@H](CO)[C@@H](O)[C@H](O)[C@H]3O)c(O)cc(O)c12 [orientin] |  | inhibited | 
heparin |  |  | decomposition of hyaluronic acid by cultured fibroblasts [2]: inhibited
IL-β: cytokine, RA-related inflammatory mediator (probably IL-1β) | stimulate expression |  | 
CN(C)CCCN1c2ccccc2Sc2ccc(Cl)cc21 [chlorpromazine] |  | inhibited | 
NCCc1c[nH]cn1 [histamine] |  |  | Vmax of hyaluronic acid decomposition by cells [2, 4]: 1,370 μg/10^5 cells/3 days; apparent Km of hyaluronic acid decomposition by cells [2, 4]: 1,500 μg/mL; increase of Vmax of hyaluronic acid decomposition ([2]; after stimulation with histamine, versus unstimulated cells): 3.7 times; decomposition of hyaluronic acid by cultured fibroblasts [2]: up-regulated; increase in expression level of KIAA1199 mRNA (KIAA1199 mRNA [3]): 3.7 times
IL-6: cytokine, RA-related inflammatory mediator | stimulate expression |  | 
O=C(O)CN(CCN(CC(=O)O)CC(=O)O)CC(=O)O [EDTA] |  | inhibited | 
CO/C1=C\C(C)=C\[C@@H](C)[C@@H](O)[C@@H](C)C/C(C)=C/C=C/[C@H](OC)[C@@H]([C@@H](C)[C@@H](O)[C@H](C)[C@@]2(O)C[C@@H](O)[C@H](C)[C@@H](C(C)C)O2)OC1=O [bafilomycin A1] |  | inhibited | 
TGF-[3]: TGF-β1, down-regulates hyaluronic acid decomposition in fibroblasts |  |  | decomposition of hyaluronic acid by cultured fibroblasts [2]: down-regulated
B1 | stimulate expression |  | 
